Measured values: ChEMBL document CHEMBL4651402, “Screening of ~5500 FDA-approved drugs and clinical candidates for anti-SARS-CoV-2 activity” (2021)

How the values were obtained:
[1] = tested on: SARS-CoV-2; test: microbe, parasite or virus in culture; conditions: Severe acute respiratory syndrome coronavirus 2, Vero C1008, 48 h
[2] = tested on: SARS-CoV-2; test: microbe, parasite or virus in culture; assay type: functional, organism-based, Chlorocebus sabaeus, Vero C1008; conditions: Severe acute respiratory syndrome coronavirus 2, Vero C1008, 48 h
[3] = in vitro; conditions: chlorocebus sabaeus, Vero E6 (Vero C1008) cells

Row | Structure (SMILES) | IC50 [1] | IC50 ([1]; read-out: pIC50 (converted)) | IC50 ([2]; read-out: IC50) | IC50 ([2]; read-out: pIC50 (converted)) | CC50 at 48 h ([3]; CC50) | CC50 at 48 h ([3]; pCC50)
1 | Nc1ccn([C@@H]2S[C@H](CO)[C@@H](O)[C@@H]2O)c(=O)n1 [THIARABINE] | > 20 µM | > 20 µM | ~12.3 µM | ~12.3 µM |  | 
2 | CCC(C)n1ncn(-c2ccc(N3CCN(c4ccc(OCC5COC(Cn6cncn6)(c6ccc(Cl)cc6Cl)O5)cc4)CC3)cc2)c1=O (stereo unspecified) [ITRACONAZOLE] | > 100 µM | > 100 µM |  |  | > 100 µM | > 100 µM
3 | NCCCCCN |  |  | > 20 µM | > 20 µM |  | 
4 | OCCN1CCN(CCCN2c3ccccc3Sc3ccc(C(F)(F)F)cc32)CC1 [FLUPHENAZINE] |  |  |  |  | 7.76 µM | 7.76 µM
5 | COc1ccc(CCN2CCC(Nc3nc4ccccc4n3Cc3ccc(F)cc3)CC2)cc1 [ASTEMIZOLE] |  |  |  |  | 7.5 µM | 7.41 µM
6 | CCOc1nc(N)nc2c1ncn2[C@@H]1O[C@@H]2CO[P@](=O)(OC(C)C)O[C@H]2[C@@]1(C)F | > 20 µM | > 20 µM | > 50.1 µM | > 50.1 µM |  | 
7 | CC[C@@H](C(=O)[C@@H](C)[C@@H](O)[C@H](C)[C@@H]1O[C@@H]([C@@H](CC)C(=O)O)CC[C@@H]1C)[C@H]1O[C@]2(C=C[C@@H](O)[C@]3(CC[C@@](C)([C@H]4CC[C@](O)(CC)[C@H](C)O4)O3)O2)[C@H](C)C[C@@H]1C [SALINOMYCIN] | > 20 µM | > 20 µM | 1.29 µM | 1.29 µM |  | 
8 | CN(C)C(=O)C(CCN1CCC(O)(c2ccc(Cl)cc2)CC1)(c1ccccc1)c1ccccc1 [LOPERAMIDE] |  |  |  |  | ~22 µM | ~21.9 µM
9 | CN1c2c([nH]c(N)nc2=O)NCC1CNc1ccc(C(=O)N[C@@H](CCC(=O)O)C(=O)O)cc1 (stereo partly specified) |  |  | > 20 µM | > 20 µM |  | 
10 | COc1cccc2c1C(=O)c1c(O)c3c(c(O)c1C2=O)C[C@@](O)(C(=O)CO)C[C@@H]3O[C@H]1C[C@H](N)[C@@H](O)[C@H](C)O1 [EPIRUBICIN] |  |  | > 100 µM | > 100 µM |  | 
11 | CN(C[C@@H]1COCCO1)S(=O)(=O)Nc1ccc2ccc3ncc(-c4cnn(C)c4)cc3c(=O)c2c1 [MK-2461] | > 20 µM | > 20 µM | > 20 µM | > 20 µM |  | 
12 | COc1cc2c(c(OC)c1OC)-c1ccc(OC)c(=O)cc1[C@@H](NC(C)=O)CC2 [COLCHICINE] | > 100 µM | > 100 µM | > 100 µM | > 100 µM |  | 
13 | CCOc1ccc(-n2c([C@@H](C)N(Cc3cccnc3)C(=O)Cc3ccc(OC(F)(F)F)cc3)nc3ncccc3c2=O)cc1 (racemic) | > 20 µM | > 20 µM | > 20 µM | > 20 µM |  | 
14 | Nc1ccn([C@@H]2S[C@H](CO)[C@@H](O)[C@H]2F)c(=O)n1 | > 20 µM | > 20 µM | > 20 µM | > 20 µM |  | 
15 | CCN(CC)CCOc1ccc(C(=C(Cl)c2ccccc2)c2ccccc2)cc1 [CLOMIPHENE] | > 20 µM | > 20 µM | > 20 µM | > 20 µM |  | 
16 | CC(COc1ccccc1)N(CCCl)Cc1ccccc1 (stereo unspecified) [PHENOXYBENZAMINE] | 20 µM | 20 µM | > 100 µM | > 100 µM |  | 
17 | CN(C)CCCN1c2ccccc2CCc2ccc(Cl)cc21 [CLOMIPRAMINE] |  |  |  |  | 16 µM | 15.8 µM
18 | CC[C@@H]1C(=O)N(C)c2cnc(Nc3ccc(C(=O)NC4CCN(C)CC4)cc3OC)nc2N1C1CCCC1 [BI-2536] |  |  |  |  | 0.603 µM | 0.603 µM
19 | Cc1c(-c2ccc(-c3ccccc3F)cc2)nc2ccc(F)cc2c1C(=O)O [BREQUINAR] | > 20 µM | > 20 µM | > 20 µM | > 20 µM |  | 
20 | CC(C)[C@H](C(=O)Nc1ccc(C(=O)NO)cc1)c1ccccc1 [AR-42] | > 20 µM | > 20 µM |  |  | 0.851 µM | 0.851 µM
21 | CN(C)C(=O)COC(=O)Cc1ccc(OC(=O)c2ccc(NC(=N)N)cc2)cc1 [CAMOSTAT] | > 20 µM | > 20 µM | > 100 µM | > 100 µM |  | 
22 | c1cc(OCCCN2CCCCC2)ccc1CN1CCCCC1 [JNJ-5207852] | > 20 µM | > 20 µM | > 20 µM | > 20 µM |  | 
23 | COc1nc(N)nc2c1ncn2[C@@H]1O[C@H](COP(=O)(N[C@@H](C)C(=O)OCC(C)(C)C)Oc2cccc3ccccc23)[C@@H](O)[C@@]1(C)O (stereo partly specified) [BMS-986094] | > 20 µM | > 20 µM | > 20 µM | > 20 µM |  | 

Row | Structure (SMILES) | IC50 [1] | IC50 ([1]; read-out: pIC50 (converted)) | IC50 ([2]; read-out: IC50) | IC50 ([2]; read-out: pIC50 (converted)) | CC50 at 48 h ([3]; CC50) | CC50 at 48 h ([3]; pCC50)
24 | O=C1CCc2ccc(OCCCCN3CCN(c4cccc(Cl)c4Cl)CC3)cc2N1 [ARIPIPRAZOLE] |  |  |  |  | 11.4 µM | 11.2 µM
25 | Cc1nc(OCCCCCN2CCCCC2)cc(-c2ccc(F)cc2)n1 [ENECADIN] | 1.74 µM | 1.74 µM | 21.9 µM | 21.9 µM |  | 
26 | CN1CC[C@H](c2c(O)cc(O)c3c(=O)cc(-c4ccccc4Cl)oc23)[C@H](O)C1 [ALVOCIDIB] | > 20 µM | > 20 µM | > 10 µM | > 10 µM |  | 
27 | CN1[C@@H]2CC[C@H]1CC(OC(c1ccccc1)c1ccccc1)C2 (stereo partly specified) |  |  |  |  | ~46.8 µM | ~46.8 µM
28 | CSc1ccc2c(c1)N(CCC1CCCCN1C)c1ccccc1S2 (stereo unspecified) [THIORIDAZINE] |  |  |  |  | ~6.38 µM | ~6.31 µM
29 | CC(C)CN(C[C@H](O)[C@H](Cc1ccccc1)NC(=O)O[C@H]1CO[C@@H]2OCC[C@@H]21)S(=O)(=O)c1ccc(N)cc1 | > 20 µM | > 20 µM | > 20 µM | > 20 µM |  | 
30 | CN1CC(=O)N=C1NC(=O)Nc1cccc(Cl)c1 [FENOBAM ANHYDROUS] | > 20 µM | > 20 µM | > 25.1 µM | > 25.1 µM |  | 
31 | Nc1ccn([C@@H]2O[C@H](CO)[C@@H](O)[C@@H]2O)c(=O)n1 [CYTARABINE] | > 50.1 µM | > 50.1 µM | > 20 µM | > 20 µM |  | 
32 | Cc1nc2ccc(Oc3ccccc3)cc2c2c1CCN2CCc1ccccc1 | > 20 µM | > 20 µM | ~4.9 µM | ~4.9 µM |  | 
33 | CC(C)C(=O)OC[C@H]1O[C@@H](n2cc/c(=N\O)[nH]c2=O)[C@H](O)[C@@H]1O [MOLNUPIRAVIR] | 14.1 µM | 14.1 µM | ~4.56 µM | ~4.57 µM |  | 
34 | CCOC(=O)c1c(CSc2ccccc2)n(C)c2cc(Br)c(O)c(CN(C)C)c12 [UMIFENOVIR] | > 100 µM | > 100 µM | > 100 µM | > 100 µM |  | 
35 | OC(Cn1cncn1)(Cn1cncn1)c1ccc(F)cc1F [FLUCONAZOLE] | > 20 µM | > 20 µM |  |  |  | 
36 | Cc1[nH]cnc1CN1CCc2c(c3ccccc3n2C)C1=O [ALOSETRON] | > 20 µM | > 20 µM |  |  |  | 
37 | O=c1cc(-c2ccc(O)cc2)oc2c(C3O[C@H](CO)[C@@H](O)[C@H](O)[C@H]3O)c(O)cc(O)c12 (stereo partly specified) | > 20 µM | > 20 µM |  |  |  | 
38 | CO[C@@H]1[C@@H](OC(N)=O)[C@@H](O)[C@H](Oc2ccc3c(O)c(NC(=O)c4ccc(O)c(CC=C(C)C)c4)c(=O)oc3c2C)OC1(C)C [NOVOBIOCIN] | > 20 µM | > 20 µM |  |  |  | 
39 | Cc1c(Cc2ccc3ccccc3n2)c2cc(F)ccc2n1CC(=O)O [TIMAPIPRANT] | > 20 µM | > 20 µM |  |  |  | 
40 | CCOC(=O)[C@H](C)C[C@@H](Cc1ccc(-c2ccccc2)cc1)NC(=O)CCC(=O)O [SACUBITRIL] | > 20 µM | > 20 µM |  |  |  | 
41 | NC(=O)N=NC(N)=O | > 20 µM | > 20 µM |  |  |  | 
42 | COc1cc(F)c(F)c(Nc2ccc(I)cc2F)c1NS(=O)(=O)C1(C[C@H](O)CO)CC1 [REFAMETINIB] | > 20 µM | > 20 µM |  |  |  | 
43 | COc1cccc2c1C(=O)c1c(O)c3c(c(O)c1C2=O)C[C@@](O)(C(C)=O)C[C@@H]3O[C@H]1C[C@H](N)[C@H](O)[C@H](C)O1 [DAUNORUBICIN] | > 20 µM | > 20 µM |  |  |  | 
44 | O=C1C(Cl)=C(Cl)C(=O)c2c(O)ccc(O)c21 | > 20 µM | > 20 µM |  |  |  | 
45 | Nc1ncnc2c1ncn2[C@@H]1O[C@H](CO)C[C@H]1O [CORDYCEPIN] | > 20 µM | > 20 µM |  |  |  | 
